{
  "source": "paper PMC5499824",
  "about": "(Nucleic Acids Research, 2017)",
  "key": {"[1]": {"molecular_target": "T1, hNSun6 (Homo sapiens, UniProt Q8TEA1, K248A)", "T1 sequence (Q8TEA1 1-469 K248A)": "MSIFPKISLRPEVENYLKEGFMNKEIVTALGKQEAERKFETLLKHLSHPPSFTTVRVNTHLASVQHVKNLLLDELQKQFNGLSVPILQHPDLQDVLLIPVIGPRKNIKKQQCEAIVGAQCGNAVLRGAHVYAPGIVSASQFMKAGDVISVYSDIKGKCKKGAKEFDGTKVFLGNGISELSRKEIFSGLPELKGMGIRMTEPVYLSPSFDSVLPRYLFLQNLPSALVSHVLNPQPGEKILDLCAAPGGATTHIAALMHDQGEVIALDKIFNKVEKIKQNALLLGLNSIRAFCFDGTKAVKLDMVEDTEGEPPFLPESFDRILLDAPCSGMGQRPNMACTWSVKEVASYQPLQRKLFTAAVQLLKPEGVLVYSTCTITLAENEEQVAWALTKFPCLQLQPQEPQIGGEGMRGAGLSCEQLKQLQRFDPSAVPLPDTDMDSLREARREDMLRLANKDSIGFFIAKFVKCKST", "experiment": "isothermal titration calorimetry", "format": "binding"}, "[2]": {"molecular_target": "T2, hNSun6 (Homo sapiens, UniProt Q8TEA1)", "T2 sequence (Q8TEA1 1-469)": "T1 sequence (Q8TEA1 1-469 K248A) with A248K", "experiment": "isothermal titration calorimetry", "format": "binding"}},
  "note": "Numbering of substitutions follows the chain as printed.",
  "data": [
    {"smiles": "C[S+](CC[C@H](N)C(=O)O)C[C@H]1O[C@@H](n2cnc3c(N)ncnc32)[C@H](O)[C@@H]1O", "note": "(some centres unmarked) [SAM]", "values": [
      {"measurement": "Kd", "setting": "[1]", "value": 10.3, "unit": "µM"},
      {"measurement": "Kd", "setting": "[2]", "value": 1.7, "unit": "µM"}
    ]}
  ]
}
